Publication PMC8944662 (Proceedings of the National Academy of Sciences of the …, 2022)

Biological target: NfnL (isolated large subunit of NADH-dependent ferredoxin-NADP+ oxidoreductase I) (Pyrococcus furiosus, UniProt Q8U195)
Assay: intrinsic Trp/Tyr fluorescence quenching titration, Morrison fit
Format: binding

Sequence of NfnL (isolated large subunit of NADH-dependent ferredoxin-NADP+ oxidoreductase I) (Q8U195 whole entry): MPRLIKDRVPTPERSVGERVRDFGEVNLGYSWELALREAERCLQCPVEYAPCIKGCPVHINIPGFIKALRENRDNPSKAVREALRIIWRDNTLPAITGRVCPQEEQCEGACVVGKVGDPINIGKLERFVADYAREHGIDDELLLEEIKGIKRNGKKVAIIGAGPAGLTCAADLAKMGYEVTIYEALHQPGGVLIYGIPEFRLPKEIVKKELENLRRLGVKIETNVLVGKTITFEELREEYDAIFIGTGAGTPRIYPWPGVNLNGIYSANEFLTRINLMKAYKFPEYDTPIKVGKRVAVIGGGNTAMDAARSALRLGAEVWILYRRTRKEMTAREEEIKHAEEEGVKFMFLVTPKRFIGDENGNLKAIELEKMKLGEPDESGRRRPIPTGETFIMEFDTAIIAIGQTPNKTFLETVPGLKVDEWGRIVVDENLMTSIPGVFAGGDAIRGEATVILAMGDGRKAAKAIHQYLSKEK

SMILES	Kd
NC(=O)C1=CN([C@@H]2O[C@H](COP(=O)(O)OP(=O)(O)OC[C@H]3O[C@@H](n4cnc5c(N)ncnc54)[C@H](OP(=O)(O)O)[C@@H]3O)[C@@H](O)[C@H]2O)C=CC1 [NADPH]	3 ± 0.4 µM
NC(=O)c1ccc[n+]([C@@H]2O[C@H](COP(=O)(O)OP(=O)(O)OC[C@H]3O[C@@H](n4cnc5c(N)ncnc54)[C@H](OP(=O)(O)O)[C@@H]3O)[C@@H](O)[C@H]2O)c1 [NADP^+]	3 ± 0.4 µM
